Measurements as given in ChEMBL document CHEMBL4033663, “Design, combinatorial synthesis and biological evaluations of novel 3-amino-1'-((1-aryl-1H-1,2,3-triazol-5-yl)methyl)-2'-oxospiro[benzo[a] pyrano[2,3-c]phenazine-1,3'-indoline]-2-carbonitrile antitumor hybrid molecules” (Eur J Med Chem, 2017).
pIC50: −log10 of the molar value.

What was measured:
HCT-116 = assay: Antiproliferative activity against human HCT116 cells after 48 hrs by MTT assay; format: functional, cell-based; conditions: HCT-116, 48 h
A549 = assay: Antiproliferative activity against human A549 cells after 48 hrs by MTT assay; format: functional, cell-based; conditions: A549, 48 h
MCF7 = assay: Antiproliferative activity against human MCF7 cells after 48 hrs by MTT assay; format: functional, cell-based; conditions: MCF7, 48 h
L02 = assay: Antiproliferative activity against human L02 cells after 48 hrs by MTT assay; format: cell-based; conditions: L02, 48 h
HepG2 = assay: Antiproliferative activity against human HepG2 cells after 48 hrs by MTT assay; format: functional, cell-based; conditions: HepG2, 48 h
HUVEC = assay: Antiproliferative activity against human HUVEC cells after 48 hrs by MTT assay; format: cell-based

pIC50 (HCT-116) | pIC50 (A549) | pIC50 (MCF7) | pIC50 (HepG2) | Compound | pIC50 (L02) | pIC50 (HUVEC)
< 4.30 | < 4.30 | < 4.30 | < 4.30 | CCc1cccc(C)c1-n1nncc1CN1C(=O)C2(C(C#N)=C(N)Oc3c(N)cc4nc5ccccc5nc4c32)c2ccccc21 (stereo unspecified) | < 4.30 | < 4.30
< 4.30 | < 4.30 | < 4.30 | < 4.30 | N#CC1=C(N)Oc2c(c3nc4ccccc4nc3c3ccccc23)C12C(=O)N(Cc1cnnn1-c1ccc(F)cc1)c1ccccc12 (stereo unspecified) | < 4.30 | < 4.30
< 4.30 | 4.55 | 4.55 | 4.35 | COc1ccc(OC)c(-n2nncc2CN2C(=O)C3(C(C#N)=C(N)Oc4c(N)cc5nc6ccccc6nc5c43)c3ccccc32)c1 (stereo unspecified) | < 4.30 | < 4.30
< 4.30 | < 4.30 | < 4.30 | < 4.30 | Cc1ccc(-n2nncc2CN2C(=O)C3(C(C#N)=C(N)Oc4c3c3nc5ccccc5nc3c3ccccc43)c3ccccc32)c(C)c1 (stereo unspecified) | < 4.30 | < 4.30
4.91 | 4.56 | 4.51 | 4.42 | N#CC1=C(N)Oc2c(N)cc3nc4ccccc4nc3c2C12C(=O)N(Cc1cnnn1-c1ccccc1Br)c1ccccc12 (stereo unspecified) | 4.53 | 4.47
< 4.30 | 4.50 | < 4.30 | < 4.30 | Cc1ccccc1-n1nncc1CN1C(=O)C2(C(C#N)=C(N)Oc3c(N)cc4nc5ccccc5nc4c32)c2ccccc21 (stereo unspecified) | < 4.30 | < 4.30
< 4.30 | < 4.30 | < 4.30 | < 4.30 | CC(=O)Nc1ccc(-n2nncc2CN2C(=O)C3(C(C#N)=C(N)Oc4c3c3nc5ccccc5nc3c3ccccc43)c3ccccc32)cc1 (stereo unspecified) | < 4.30 | < 4.30
< 4.30 | < 4.30 | < 4.30 | < 4.30 | Cc1ccc(-n2nncc2CN2C(=O)C3(C(C#N)=C(N)Oc4c3c3nc5ccccc5nc3c3ccccc43)c3ccccc32)cc1Cl (stereo unspecified) | < 4.30 | < 4.30
< 4.30 | 4.35 | 4.44 | < 4.30 | N#CC1=C(N)Oc2c(c3nc4ccccc4nc3c3ccccc23)C12C(=O)N(Cc1cnnn1-c1ccc(Br)cc1)c1ccccc12 (stereo unspecified) | < 4.30 | < 4.30
< 4.30 | 4.96 | 4.48 | 4.48 | N#CC1=C(N)Oc2c(N)cc3nc4ccccc4nc3c2C12C(=O)N(Cc1cnnn1-c1cc(Cl)ccc1Cl)c1ccccc12 (stereo unspecified) | < 4.30 | < 4.30
4.99 | 4.61 | 4.61 | 4.75 | CCc1ccccc1-n1nncc1CN1C(=O)C2(C(C#N)=C(N)Oc3c(N)cc4nc5ccccc5nc4c32)c2ccccc21 (stereo unspecified) | 4.64 | < 4.30
4.34 | < 4.30 | < 4.30 | < 4.30 | N#CC1=C(N)Oc2c(c3nc4ccccc4nc3c3ccccc23)C12C(=O)N(Cc1cnnn1-c1ccc(N)cc1)c1ccccc12 (stereo unspecified) | < 4.30 | < 4.30
< 4.30 | < 4.30 | < 4.30 | < 4.30 | N#CC1=C(N)Oc2c(c3nc4ccccc4nc3c3ccccc23)C12C(=O)N(Cc1cnnn1-c1ccc(F)c(Cl)c1)c1ccccc12 (stereo unspecified) | < 4.30 | < 4.30
< 4.30 | < 4.30 | < 4.30 | < 4.30 | COc1ccccc1-n1nncc1CN1C(=O)C2(C(C#N)=C(N)Oc3c2c2nc4ccccc4nc2c2ccccc32)c2ccccc21 (stereo unspecified) | < 4.30 | < 4.30
< 4.30 | < 4.30 | < 4.30 | < 4.30 | N#CC1=C(N)Oc2c(N)cc3nc4ccccc4nc3c2C12C(=O)N(Cc1cnnn1-c1c(F)cccc1F)c1ccccc12 (stereo unspecified) | < 4.30 | < 4.30
4.54 | < 4.30 | < 4.30 | < 4.30 | N#CC1=C(N)Oc2c(N)cc3nc4ccccc4nc3c2C12C(=O)N(Cc1cnnn1-c1ccc(Cl)cc1[N+](=O)[O-])c1ccccc12 (stereo unspecified) | < 4.30 | < 4.30
< 4.30 | < 4.30 | < 4.30 | < 4.30 | N#CC1=C(N)Oc2c(N)cc3nc4ccccc4nc3c2C12C(=O)N(Cc1cnnn1-c1ccc(F)cc1)c1ccccc12 (stereo unspecified) | < 4.30 | < 4.30
< 4.30 | < 4.30 | < 4.30 | 4.52 | CCOc1ccccc1-n1nncc1CN1C(=O)C2(C(C#N)=C(N)Oc3c(N)cc4nc5ccccc5nc4c32)c2ccccc21 (stereo unspecified) | < 4.30 | < 4.30

pIC50 (HCT-116) | pIC50 (A549) | pIC50 (MCF7) | pIC50 (HepG2) | Compound | pIC50 (L02) | pIC50 (HUVEC)
< 4.30 | 4.93 | < 4.30 | < 4.30 | Cc1ccc(-n2nncc2CN2C(=O)C3(C(C#N)=C(N)Oc4c(N)cc5nc6ccccc6nc5c43)c3ccccc32)cc1Cl (stereo unspecified) | < 4.30 | < 4.30
< 4.30 | < 4.30 | < 4.30 | < 4.30 | N#CC1=C(N)Oc2c(N)cc3nc4ccccc4nc3c2C12C(=O)N(Cc1cnnn1-c1ccc(Cl)cc1Cl)c1ccccc12 (stereo unspecified) | < 4.30 | < 4.30
< 4.30 | < 4.30 | < 4.30 | < 4.30 | N#CC1=C(N)Oc2c(c3nc4ccccc4nc3c3ccccc23)C12C(=O)N(Cc1cnnn1-c1cccc(Br)c1)c1ccccc12 (stereo unspecified) | < 4.30 | < 4.30
< 4.30 | < 4.30 | < 4.30 | < 4.30 | N#CC1=C(N)Oc2c(c3nc4ccccc4nc3c3ccccc23)C12C(=O)N(Cc1cnnn1-c1ccccc1Br)c1ccccc12 (stereo unspecified) | < 4.30 | < 4.30
4.51 | < 4.30 | < 4.30 | 4.37 | N#CC1=C(N)Oc2c(c3nc4ccccc4nc3c3ccccc23)C12C(=O)N(Cc1cnnn1-c1ccc(S(N)(=O)=O)cc1)c1ccccc12 (stereo unspecified) | < 4.30 | < 4.30
< 4.30 | < 4.30 | < 4.30 | < 4.30 | N#CC1=C(N)Oc2c(c3nc4ccccc4nc3c3ccccc23)C12C(=O)N(Cc1cnnn1-c1ccc(Cl)cc1)c1ccccc12 (stereo unspecified) | < 4.30 | < 4.30
< 4.30 | 4.60 | < 4.30 | < 4.30 | CCOc1ccc(-n2nncc2CN2C(=O)C3(C(C#N)=C(N)Oc4c3c3nc5ccccc5nc3c3ccccc43)c3ccccc32)cc1 (stereo unspecified) | < 4.30 | < 4.30
< 4.30 | < 4.30 | < 4.30 | < 4.30 | Cc1ccc(C)c(-n2nncc2CN2C(=O)C3(C(C#N)=C(N)Oc4c(N)cc5nc6ccccc6nc5c43)c3ccccc32)c1 (stereo unspecified) | < 4.30 | < 4.30
4.95 | 4.35 | 4.37 | 4.67 | N#CC1=C(N)Oc2c(c3nc4ccccc4nc3c3ccccc23)C12C(=O)N(Cc1cnnn1-c1cccc(S(N)(=O)=O)c1)c1ccccc12 (stereo unspecified) | < 4.30 | 4.41
< 4.30 | 4.49 | 4.36 | < 4.30 | N#CC1=C(N)Oc2c(c3nc4ccccc4nc3c3ccccc23)C12C(=O)N(Cc1cnnn1-c1cccc(Cl)c1)c1ccccc12 (stereo unspecified) | 4.45 | < 4.30
4.43 | < 4.30 | 4.36 | 4.76 | Cc1ccc(Cl)cc1-n1nncc1CN1C(=O)C2(C(C#N)=C(N)Oc3c(N)cc4nc5ccccc5nc4c32)c2ccccc21 (stereo unspecified) | < 4.30 | < 4.30
< 4.30 | < 4.30 | < 4.30 | < 4.30 | Cc1ccc(-n2nncc2CN2C(=O)C3(C(C#N)=C(N)Oc4c(N)cc5nc6ccccc6nc5c43)c3ccccc32)cc1C (stereo unspecified) | < 4.30 | < 4.30
< 4.30 | < 4.30 | < 4.30 | < 4.30 | CCOc1ccccc1-n1nncc1CN1C(=O)C2(C(C#N)=C(N)Oc3c2c2nc4ccccc4nc2c2ccccc32)c2ccccc21 (stereo unspecified) | < 4.30 | < 4.30
< 4.30 | < 4.30 | < 4.30 | < 4.30 | N#CC1=C(N)Oc2c(N)cc3nc4ccccc4nc3c2C12C(=O)N(Cc1cnnn1-c1ccc(Cl)cc1)c1ccccc12 (stereo unspecified) | < 4.30 | < 4.30
< 4.30 | < 4.30 | < 4.30 | < 4.30 | COc1ccc(-n2nncc2CN2C(=O)C3(C(C#N)=C(N)Oc4c3c3nc5ccccc5nc3c3ccccc43)c3ccccc32)cc1 (stereo unspecified) | < 4.30 | < 4.30
< 4.30 | 4.43 | 4.54 | < 4.30 | COc1ccccc1-n1nncc1CN1C(=O)C2(C(C#N)=C(N)Oc3c(N)cc4nc5ccccc5nc4c32)c2ccccc21 (stereo unspecified) | < 4.30 | < 4.30
< 4.30 | < 4.30 | < 4.30 | < 4.30 | N#CC1=C(N)Oc2c(c3nc4ccccc4nc3c3ccccc23)C12C(=O)N(Cc1cnnn1-c1ccc([N+](=O)[O-])cc1)c1ccccc12 (stereo unspecified) | < 4.30 | < 4.30
< 4.30 | 4.53 | 4.46 | 4.47 | N#CC1=C(N)Oc2c(N)cc3nc4ccccc4nc3c2C12C(=O)N(Cc1cnnn1-c1ccccc1Cl)c1ccccc12 (stereo unspecified) | < 4.30 | < 4.30

Compound | pIC50 (HCT-116) | pIC50 (A549) | pIC50 (MCF7) | pIC50 (HepG2) | pIC50 (L02) | pIC50 (HUVEC)
CC[C@@]1(O)C(=O)OCc2c1cc1n(c2=O)Cc2cc3cc(O)ccc3nc2-1 [HYDROXYCAMPTOTHECIN] | 5.49 | – | 5.55 | 4.99 | 4.69 | 4.74
